Results from patent US20040142944A1, “Compositions for nasal application” (priority 2001, published 2004).
Entries after “also recorded” stand apart in the source; their conditions may differ.

Test: nasal administration of cGMP PDE inhibitors with added local anaesthetic
Assay type: in vivo

## OCc1ccccc1 [benzyl alcohol]
  local irritation of the nasal mucosa: led to local irritation of the nasal mucosa
Added to cGMP PDE inhibitor
  ability to reduce or prevent the disadvantages occurring on nasal administration of cGMP PDE inhibitors (unpleasant nasal condition, eye-watering, increased nasal airway resistance, nasal blockage): unable to reduce or prevent the disadvantages; also recorded: unsuitable for overcoming the disadvantages
